{
  "source": "PubChem BioAssay AID1996",
  "data": [
    {"conditions": "buffer; pH 7.4; 200.0 µM", "units": {"solubility kinetic": "µg/mL"}, "values": [
      {"smiles": "NS(=O)(=O)c1ccc(SCc2ccccc2)nc1", "solubility kinetic": 10.4},
      {"smiles": "COc1ccc(CN(C(=O)/C=C/c2ccco2)C2CCS(=O)(=O)C2)cc1", "note": "(stereo not given)", "solubility kinetic": 44.7},
      {"smiles": "COCc1c(C(=O)NC2CCCCCC2)oc2ccccc12", "solubility kinetic": 10.4},
      {"smiles": "COc1ccc(CNc2nc3ccccc3n2C(C)C)c(O)c1", "solubility kinetic": 25.7},
      {"smiles": "CS(=O)(=O)c1ccc(C(=O)OCC(=O)NC(=O)C2COc3ccccc3O2)cc1[N+](=O)[O-]", "note": "(stereo not given)", "solubility kinetic": 39.2},
      {"smiles": "Cc1ccc(OCC(=O)N2CCCCCCC2)cc1C", "solubility kinetic": 22.6},
      {"smiles": "Nc1nc2nonc2nc1N", "solubility kinetic": "> 22.8"},
      {"smiles": "CC1(C)C(C=C(Cl)Cl)C1C(=O)NC(O)C(=O)c1ccccc1", "note": "(stereo not given)", "solubility kinetic": 10.8},
      {"smiles": "O=C(NCc1ccccc1)c1cccc(S(=O)(=O)N2CCCCC2)c1", "solubility kinetic": 7.6},
      {"smiles": "COc1ccccc1CNC(=O)COc1ccc(C)cc1", "solubility kinetic": 26.2},
      {"smiles": "COc1ccccc1C(=O)c1c(C)c(CCC#N)n2ccccc12", "solubility kinetic": 40.6},
      {"smiles": "Cc1ccc(S(=O)(=O)c2ncccc2[N+](=O)[O-])cc1", "solubility kinetic": 40.9},
      {"smiles": "O=C(NCc1ccco1)c1ccc(-c2ccc(Cl)cc2)o1", "solubility kinetic": 1.2},
      {"smiles": "O=S(=O)(NCc1ccc2c(c1)OCO2)c1ccccc1F", "solubility kinetic": 37.1},
      {"smiles": "O=S(=O)(NC1=NCCCCC1)c1ccc(F)cc1F", "solubility kinetic": "> 43.2"},
      {"smiles": "O=C1OCCC1Sc1nnc(-c2ccco2)n1-c1ccccc1", "note": "(stereo not given)", "solubility kinetic": "> 49.1"},
      {"smiles": "O=S(=O)(c1ccc(Cl)cc1)N1CCC(n2cccc2)CC1", "solubility kinetic": 0.6},
      {"smiles": "O=[N+]([O-])c1ccc(Nc2cccc(F)c2)nc1", "solubility kinetic": 13.4},
      {"smiles": "COc1cc(CN2CCCCCC2)c([N+](=O)[O-])cc1OC", "solubility kinetic": 34.8},
      {"smiles": "O=C(Nc1ccccc1C(=O)Nc1ccccn1)c1ccc([N+](=O)[O-])cc1", "solubility kinetic": 0.6},
      {"smiles": "COc1cc(C2NC(=O)NC(C)=C2C(C)=O)ccc1O", "note": "(stereo not given)", "solubility kinetic": "> 41.4"},
      {"smiles": "O=S(=O)(c1ccccc1F)N1CCCc2ccccc21", "solubility kinetic": 11.2},
      {"smiles": "O=C(CCNC(=O)c1ccc(Br)cc1)NCc1ccco1", "solubility kinetic": "> 52.7"},
      {"smiles": "COc1ccc(Nc2cc(Sc3ccc(OC)cc3)ncn2)cc1", "solubility kinetic": 4.6},
      {"smiles": "O=C(O)/C(=C/c1ccco1)NC(=O)c1ccc(Br)o1", "solubility kinetic": "> 48.9"},
      {"smiles": "CCOC(=O)CC(=O)CSc1nc(CC)c(C)cc1C#N", "solubility kinetic": "> 46"},
      {"smiles": "Cc1ccccc1Nc1nc(N)nc(CSc2nnc(C)n2C)n1", "solubility kinetic": "> 51.4"},
      {"smiles": "CC(C)CC1C2C(=O)N(c3ccccc3)C(=O)C2ON1c1ccccc1", "note": "(stereo not given)", "solubility kinetic": 27.7},
      {"smiles": "COc1ccc(CC(C)NCCc2ccc(OC)c(OC)c2)cc1", "note": "(stereo not given)", "solubility kinetic": 48.7},
      {"smiles": "c1ccc(-c2nc3c4ccccc4ccn3c2CN2CCCCC2)cc1", "solubility kinetic": 8.1},
      {"smiles": "N#CC1(NC(=O)COC(=O)CN2C(=O)c3ccccc3C2=O)CCCCC1", "solubility kinetic": "> 55.4"},
      {"smiles": "CCOC(=O)C(c1ccccc1)C(Nc1ccc(F)cc1)c1ccccn1", "note": "(stereo not given)", "solubility kinetic": 11.9},
      {"smiles": "CC(=O)c1ccccc1NCC(=O)Nc1ccc(C)cc1", "solubility kinetic": 11.2},
      {"smiles": "CC(C)(C)NS(=O)(=O)c1ccc(NC(=O)C2CCCCC2)cc1", "solubility kinetic": 11.5},
      {"smiles": "O=C(Nc1ccccc1N1CCN(C(=O)c2ccccc2)CC1)c1ccco1", "solubility kinetic": "> 56.3"},
      {"smiles": "Cc1cnc(NC(=O)Cc2cccs2)s1", "solubility kinetic": "> 35.7"},
      {"smiles": "COC(=O)c1c(C)oc(C)c1S(=O)(=O)Nc1ccccc1", "solubility kinetic": "> 46.4"},
      {"smiles": "Cc1cc(Oc2ccc([N+](=O)[O-])cc2)nc(N2CCOCC2)n1", "solubility kinetic": 0.4},
      {"smiles": "CCOC(=O)C1CCN(S(=O)(=O)c2c(C)noc2C)CC1", "solubility kinetic": 26.8},
      {"smiles": "CC(C(=O)N1CCCC1)N1CCN(c2ccccc2O)CC1", "note": "(stereo not given)", "solubility kinetic": "> 45.5"},
      {"smiles": "C=CCC(CC=C)(C(N)=O)c1ccccc1", "solubility kinetic": 31.6},
      {"smiles": "Cc1ccc(S(=O)(=O)N2CCCCC2)cc1NC(=O)CSc1nc(N)cc(=O)[nH]1", "solubility kinetic": 52.7},
      {"smiles": "CCc1ccc2nc(NC(=O)CN3C(=O)NC4(CCCC4)C3=O)sc2c1", "solubility kinetic": 2.6},
      {"smiles": "CSc1ncc2c(=O)[nH]c(-c3ccccc3)nc2n1", "solubility kinetic": "> 40.5"},
      {"smiles": "c1csc(-c2noc(CN3CCc4sccc4C3)n2)c1", "solubility kinetic": 27.3},
      {"smiles": "COc1ccc(CCNC(=O)COc2ccccc2[N+](=O)[O-])cc1OC", "solubility kinetic": "> 54.1"},
      {"smiles": "CN(C)C(CNC(=O)c1ccccc1C(F)(F)F)c1ccco1", "note": "(stereo not given)", "solubility kinetic": "> 48.9"},
      {"smiles": "Cc1ccccc1NC(=O)CSc1nc2ccccc2c(=O)n1C", "solubility kinetic": 3},
      {"smiles": "CCc1ccc(N2C(=O)C3C(C2=O)N2CCCN2C3c2ccccc2)cc1", "note": "(stereo not given)", "solubility kinetic": "> 54.2"},
      {"smiles": "OCC[NH+](CCO)CC(O)COc1ccc(Br)cc1.[Cl-]", "note": "(stereo not given)", "solubility kinetic": "> 55.6"},
      {"smiles": "O=C1C2CCN(CC2)C12CC2c1ccc(C(F)(F)F)cc1", "note": "(stereo not given)", "solubility kinetic": 23.9},
      {"smiles": "O=C(CSc1nc2ccccc2o1)NC1CCS(=O)(=O)C1", "note": "(stereo not given)", "solubility kinetic": "> 49"},
      {"smiles": "CC(C)c1ccc(CNc2ncccn2)cc1.O=C(O)C(=O)O", "solubility kinetic": 31.3},
      {"smiles": "O=C(O)c1ccc(Cn2c(=S)[nH]c3cc(Cl)ccc3c2=O)cc1", "solubility kinetic": "> 52"},
      {"smiles": "CCC(=O)NCCc1nc2cc(NC(=O)c3cccs3)ccc2n1C", "solubility kinetic": "> 53.5"},
      {"smiles": "COc1ccc(Nc2cc(C)c3ccccc3n2)cc1", "solubility kinetic": 12.6},
      {"smiles": "O=C(CSc1nc2ccccc2o1)NCC1CCCO1", "note": "(stereo not given)", "solubility kinetic": "> 43.9"},
      {"smiles": "O=C(c1ccc(Cl)cc1)N1CCCCC(Cl)C1=O", "note": "(stereo not given)", "solubility kinetic": 6.9},
      {"smiles": "CS(=O)(=O)NCCNc1ccc(C(F)(F)F)cc1[N+](=O)[O-]", "solubility kinetic": 30.3},
      {"smiles": "CN1CCCN(C(=O)COc2ccc(Br)cc2)CC1", "solubility kinetic": 44.7}
    ]}
  ]
}
